Experiments:
[1] = test system: Mycobacterium tuberculosis; assay: Photodynamic antibacterial activity against multidrug resistant Mycobacterium tuberculosis assessed as reduction in bacterial burden at 10 ug/ml preincubated for 2 hrs in dark followed by light irradiation at 50 J/cm2 for 500 secs; assay type: functional
[2] = test system: Mycobacterium tuberculosis; assay: Photodynamic antibacterial activity against extensively drug resistant Mycobacterium tuberculosis assessed as reduction in bacterial burden at 10 ug/ml preincubated for 2 hrs in dark followed by light irradiation at 50 J/cm2 for 500 secs; assay type: functional

## C=Cc1c(C)c2cc3nc(c(C=O)c4[nH]c(cc5nc(cc1[nH]2)C(C)=C5C)c(C)c4C(=O)O)[C@@H](CCC(=O)O)[C@@H]3C
[1]
  log(activity): 3.1
[2]
  log(activity): 2.8
